The NIST ThermoML archive (doi:10.1021/je1002829)
± gives the expanded uncertainty stated by the source.

Assay: xn = mol fraction of the nth substance listed
Details: for mass density: 101 kPa, Liquid, Pycnometric method

CCCCCC(=O)O [hexanoic acid] + O
Details	mass density, 293.15 K [kg/m3]	mass density, 298.15 K [kg/m3]	mass density, 303.15 K [kg/m3]	mass density, 308.15 K [kg/m3]	surface tension liquid-gas, 293.15 K [mN/m]	surface tension liquid-gas, 298.15 K [mN/m]	surface tension liquid-gas, 303.15 K [mN/m]	surface tension liquid-gas, 308.15 K [mN/m]
x1 = 8e-05	–	–	–	–	63.26 ± 1.3	62.69 ± 1.3	62.67 ± 1.3	62.16 ± 1.3
x1 = 0.00015	998.24 ± 0.34	997.08 ± 0.37	995.67 ± 0.39	994.07 ± 0.41	–	–	–	–
x1 = 0.00016	–	–	–	–	56.6 ± 1.2	56.02 ± 1.2	56.09 ± 1.2	56.02 ± 1.2
x1 = 0.00023	–	–	–	–	52.29 ± 1.1	51.8 ± 1.1	51.81 ± 1.1	51.94 ± 1.1
x1 = 0.00032	–	–	–	–	48.25 ± 1.1	47.98 ± 1.1	47.93 ± 1.1	48.06 ± 1.1
x1 = 0.00037	–	–	–	–	46.55 ± 1.1	46.17 ± 1.1	45.98 ± 1	46.29 ± 1.1
x1 = 0.00043	998.28 ± 0.34	997.12 ± 0.37	995.68 ± 0.4	994.07 ± 0.41	–	–	–	–
x1 = 0.00046	–	–	–	–	44.03 ± 1	43.54 ± 1	43.22 ± 1	43.67 ± 1
x1 = 0.00051	–	–	–	–	42.83 ± 1	42.62 ± 1	42.44 ± 0.99	42.6 ± 1
x1 = 0.0006	998.31 ± 0.34	997.14 ± 0.37	995.72 ± 0.4	994.09 ± 0.42	–	–	–	–
x1 = 0.00062	–	–	–	–	40.57 ± 0.97	40.6 ± 0.97	40.57 ± 0.97	40.45 ± 0.97
x1 = 0.00069	–	–	–	–	39.19 ± 0.95	39.02 ± 0.95	38.98 ± 0.95	38.89 ± 0.94
x1 = 0.00077	–	–	–	–	37.72 ± 0.93	37.36 ± 0.92	37.36 ± 0.92	37.2 ± 0.92
x1 = 0.00084	–	–	–	–	36.64 ± 0.91	36.28 ± 0.91	36.21 ± 0.91	36.07 ± 0.91
x1 = 0.00091	–	–	–	–	35.66 ± 0.9	35.23 ± 0.89	35.04 ± 0.89	34.96 ± 0.89
x1 = 0.00106	998.36 ± 0.35	997.18 ± 0.37	995.77 ± 0.4	994.1 ± 0.42	–	–	–	–
x1 = 0.0011	–	–	–	–	33.79 ± 0.87	33.17 ± 0.86	32.82 ± 0.86	32.46 ± 0.85
x1 = 0.00115	–	–	–	–	33.55 ± 0.87	32.94 ± 0.86	32.57 ± 0.86	32.11 ± 0.85
x1 = 0.00143	998.42 ± 0.35	997.22 ± 0.37	995.77 ± 0.4	994.12 ± 0.42	–	–	–	–
x1 = 0.00148	998.43 ± 0.35	997.23 ± 0.37	995.79 ± 0.4	994.12 ± 0.42	–	–	–	–
x1 = 0.0018	998.47 ± 0.35	997.25 ± 0.37	995.81 ± 0.4	994.13 ± 0.42	–	–	–	–
x1 = 0.00195	998.49 ± 0.35	997.28 ± 0.37	995.82 ± 0.4	994.15 ± 0.42	–	–	–	–
x1 = 0.00205	998.5 ± 0.35	997.29 ± 0.37	995.83 ± 0.4	994.14 ± 0.42	–	–	–	–
x1 = 0.00222	998.52 ± 0.35	997.29 ± 0.37	995.83 ± 0.4	994.16 ± 0.42	–	–	–	–
x1 = 0.00228	998.54 ± 0.35	997.31 ± 0.37	995.84 ± 0.4	994.16 ± 0.42	–	–	–	–
x1 = 0.0025	998.56 ± 0.35	997.33 ± 0.37	995.86 ± 0.4	994.18 ± 0.42	–	–	–	–
x1 = 0.00271	998.58 ± 0.35	997.35 ± 0.37	995.88 ± 0.4	994.19 ± 0.42	–	–	–	–
x1 = 0.00289	998.62 ± 0.35	997.37 ± 0.37	995.89 ± 0.4	994.19 ± 0.42	–	–	–	–
x1 = 0.00305	998.63 ± 0.35	997.4 ± 0.37	995.91 ± 0.4	994.21 ± 0.42	–	–	–	–
x1 = 0.0035	998.69 ± 0.35	997.43 ± 0.37	995.94 ± 0.4	994.23 ± 0.42	–	–	–	–

CCC(=O)O [propanoic acid] + O
Details	mass density, 293.15 K [kg/m3]	mass density, 298.15 K [kg/m3]	mass density, 303.15 K [kg/m3]	mass density, 308.15 K [kg/m3]	surface tension liquid-gas, 293.15 K [mN/m]	surface tension liquid-gas, 298.15 K [mN/m]	surface tension liquid-gas, 303.15 K [mN/m]	surface tension liquid-gas, 308.15 K [mN/m]
x1 = 0.00861	–	–	–	–	53.75 ± 1.2	52.45 ± 1.1	52.18 ± 1.1	51.48 ± 1.1
x1 = 0.01457	1000.94 ± 0.37	999.46 ± 0.39	997.79 ± 0.4	996.38 ± 0.41	49.8 ± 1.1	49.01 ± 1.1	48.47 ± 1.1	47.97 ± 1.1
x1 = 0.02075	–	–	–	–	46.86 ± 1.1	46.29 ± 1.1	45.79 ± 1	45.31 ± 1
x1 = 0.03268	1004.5 ± 0.37	1002.95 ± 0.39	1001.28 ± 0.44	998.86 ± 0.48	42.79 ± 1	42.3 ± 0.99	41.69 ± 0.98	41.23 ± 0.98
x1 = 0.0455	–	–	–	–	39.75 ± 0.96	39.16 ± 0.95	38.43 ± 0.94	37.89 ± 0.93
x1 = 0.05436	1008.59 ± 0.42	1006.51 ± 0.43	1004.63 ± 0.46	1002.08 ± 0.5	38.2 ± 0.94	37.55 ± 0.93	36.83 ± 0.92	36.18 ± 0.91
x1 = 0.06602	–	–	–	–	36.71 ± 0.91	36.04 ± 0.91	35.36 ± 0.9	34.61 ± 0.89
x1 = 0.0747	–	–	–	–	35.93 ± 0.9	35.28 ± 0.89	34.6 ± 0.89	33.85 ± 0.87
x1 = 0.0869	1014.63 ± 0.49	1011.95 ± 0.5	1009.33 ± 0.49	1006.91 ± 0.5	35.19 ± 0.89	34.59 ± 0.88	33.85 ± 0.87	33.19 ± 0.87
x1 = 0.1019	1017.46 ± 0.51	1014.23 ± 0.54	1011.41 ± 0.51	1008.86 ± 0.52	–	–	–	–
x1 = 0.1095	–	–	–	–	34.48 ± 0.88	33.94 ± 0.88	33.04 ± 0.86	32.62 ± 0.86
x1 = 0.128	1020.75 ± 0.48	1017.92 ± 0.54	1014.77 ± 0.56	1011.7 ± 0.63	34.1 ± 0.88	33.59 ± 0.87	32.68 ± 0.86	32.35 ± 0.85
x1 = 0.1494	–	–	–	–	33.68 ± 0.87	33.18 ± 0.87	32.43 ± 0.85	32 ± 0.85
x1 = 0.171	1025.1 ± 0.54	1021.28 ± 0.63	1017.58 ± 0.63	1013.89 ± 0.68	33.22 ± 0.87	32.71 ± 0.86	32.27 ± 0.85	31.51 ± 0.84
x1 = 0.1823	–	–	–	–	32.96 ± 0.86	32.45 ± 0.85	32.21 ± 0.85	31.21 ± 0.84
x1 = 0.1947	1025.78 ± 0.59	1022.21 ± 0.63	1018.26 ± 0.67	1014.09 ± 0.7	–	–	–	–
x1 = 0.2318	1026.54 ± 0.64	1022.48 ± 0.67	1018.39 ± 0.69	1014.03 ± 0.73	–	–	–	–
x1 = 0.2485	1026.51 ± 0.68	1022.21 ± 0.68	1018.12 ± 0.69	1013.78 ± 0.72	–	–	–	–
x1 = 0.2755	1026.19 ± 0.69	1021.74 ± 0.69	1017.72 ± 0.7	1013.1 ± 0.74	–	–	–	–
x1 = 0.3043	1025.42 ± 0.68	1021.28 ± 0.68	1017.05 ± 0.71	1012.52 ± 0.75	–	–	–	–
x1 = 0.333	1024.97 ± 0.67	1020.74 ± 0.68	1016.65 ± 0.74	1011.57 ± 0.81	–	–	–	–
x1 = 0.3701	1024.09 ± 0.66	1019.95 ± 0.7	1015.5 ± 0.77	1010.29 ± 0.82	–	–	–	–
x1 = 0.4001	1023.22 ± 0.7	1018.88 ± 0.72	1014.2 ± 0.76	1009.37 ± 0.78	–	–	–	–
